From ChEMBL document CHEMBL1177794, “Broad spectrum alkynyl inhibitors of T315I Bcr-Abl” (Bioorg Med Chem Lett, 2010)
pEC50: −log10 of the molar value.

What was measured:
[1] = tested on: BaF3; experiment: Antiproliferative activity against mouse BAF3 cells expressing wild type Bcr-Abl; type: functional, cell-based
[2] = tested on: Tyrosine-protein kinase ABL1 (Homo sapiens), P00519 [T315I]; experiment: Inhibition of phosphorylated ABL1 T315I mutant at 10 uM; details: values are per cent of control
[3] = biological target: Activin receptor type-1 (Homo sapiens) (UniProt Q04771); experiment: Inhibition of ACVR1 at 10 uM; details: values are per cent of control
[4] = biological target: Activin receptor type-2A (Homo sapiens) (UniProt P27037); experiment: Inhibition of ACVR2A at 10 uM; details: values are per cent of control
Activin receptor type-2A (Homo sapiens), sequence (P27037 whole entry): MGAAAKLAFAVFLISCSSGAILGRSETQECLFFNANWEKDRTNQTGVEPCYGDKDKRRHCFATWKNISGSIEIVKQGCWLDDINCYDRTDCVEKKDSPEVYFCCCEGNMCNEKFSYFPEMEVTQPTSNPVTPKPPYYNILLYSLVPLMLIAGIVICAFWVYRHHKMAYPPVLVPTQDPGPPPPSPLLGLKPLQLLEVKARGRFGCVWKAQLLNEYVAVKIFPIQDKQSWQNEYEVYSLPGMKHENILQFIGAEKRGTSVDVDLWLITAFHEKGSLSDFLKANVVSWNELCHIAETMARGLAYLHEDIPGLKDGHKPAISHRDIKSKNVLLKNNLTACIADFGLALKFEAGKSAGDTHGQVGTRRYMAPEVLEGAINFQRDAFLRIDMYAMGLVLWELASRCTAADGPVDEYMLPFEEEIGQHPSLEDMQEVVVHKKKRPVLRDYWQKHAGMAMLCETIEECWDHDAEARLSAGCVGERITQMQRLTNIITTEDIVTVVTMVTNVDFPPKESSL

[5] = biological target: Atypical kinase COQ8B, mitochondrial (Homo sapiens) (UniProt Q96D53); experiment: Inhibition of ADCK4 at 10 uM; details: values are per cent of control
Atypical kinase COQ8B, mitochondrial (Homo sapiens), sequence (Q96D53 whole entry): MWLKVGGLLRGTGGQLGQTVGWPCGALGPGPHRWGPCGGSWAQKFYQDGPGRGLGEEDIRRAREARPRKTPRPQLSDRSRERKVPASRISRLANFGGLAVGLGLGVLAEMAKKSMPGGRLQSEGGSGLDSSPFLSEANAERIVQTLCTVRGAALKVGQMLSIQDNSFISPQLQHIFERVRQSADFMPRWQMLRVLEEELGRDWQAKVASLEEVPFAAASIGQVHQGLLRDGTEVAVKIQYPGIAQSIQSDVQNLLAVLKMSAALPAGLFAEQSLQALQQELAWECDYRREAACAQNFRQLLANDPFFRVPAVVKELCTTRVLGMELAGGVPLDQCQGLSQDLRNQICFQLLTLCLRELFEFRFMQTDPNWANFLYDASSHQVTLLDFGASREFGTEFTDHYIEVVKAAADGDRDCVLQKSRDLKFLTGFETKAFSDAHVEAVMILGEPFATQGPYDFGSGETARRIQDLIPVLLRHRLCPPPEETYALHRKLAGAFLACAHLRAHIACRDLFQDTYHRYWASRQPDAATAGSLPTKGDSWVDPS

[6] = biological target: Aurora kinase B (Homo sapiens) (UniProt Q96GD4); experiment: Inhibition of AURKB at 10 uM; details: values are per cent of control
[7] = biological target: BMP-2-inducible protein kinase (Homo sapiens) (UniProt Q9NSY1); experiment: Inhibition of BIKE at 10 uM; details: values are per cent of control
[8] = biological target: Serine/threonine-protein kinase BRSK1 (Homo sapiens) (UniProt Q8TDC3); experiment: Inhibition of BRSK1 at 10 uM; details: values are per cent of control
[9] = biological target: Peripheral plasma membrane protein CASK (Homo sapiens) (UniProt O14936); experiment: Inhibition of CASK at 10 uM; details: values are per cent of control
[10] = biological target: Serine/threonine-protein kinase MRCK gamma (Homo sapiens) (UniProt Q6DT37); experiment: Inhibition of DMPK2 at 10 uM; details: values are per cent of control
[11] = biological target: Ephrin type-A receptor 6 (Homo sapiens) (UniProt Q9UF33); experiment: Inhibition of EPHA6 at 10 uM; details: values are per cent of control
[12] = biological target: Ephrin type-B receptor 3 (Homo sapiens) (UniProt P54753); experiment: Inhibition of EPHB3 at 10 uM; details: values are per cent of control
[13] = biological target: Tyrosine-protein kinase Fer (Homo sapiens) (UniProt P16591); experiment: Inhibition of FER at 10 uM; details: values are per cent of control
[14] = biological target: Fibroblast growth factor receptor 3 (Homo sapiens) (UniProt P22607); experiment: Inhibition of FGFR3 at 10 uM; details: values are per cent of control
[15] = biological target: Receptor-type tyrosine-protein kinase FLT3 (Homo sapiens) (UniProt P36888); experiment: Inhibition of FLT3 at 10 uM; details: values are per cent of control
[16] = biological target: Tyrosine-protein kinase HCK (Homo sapiens) (UniProt P08631); experiment: Inhibition of HCK at 10 uM; details: values are per cent of control
Tyrosine-protein kinase HCK (Homo sapiens), sequence (P08631 2-526 limits assumed): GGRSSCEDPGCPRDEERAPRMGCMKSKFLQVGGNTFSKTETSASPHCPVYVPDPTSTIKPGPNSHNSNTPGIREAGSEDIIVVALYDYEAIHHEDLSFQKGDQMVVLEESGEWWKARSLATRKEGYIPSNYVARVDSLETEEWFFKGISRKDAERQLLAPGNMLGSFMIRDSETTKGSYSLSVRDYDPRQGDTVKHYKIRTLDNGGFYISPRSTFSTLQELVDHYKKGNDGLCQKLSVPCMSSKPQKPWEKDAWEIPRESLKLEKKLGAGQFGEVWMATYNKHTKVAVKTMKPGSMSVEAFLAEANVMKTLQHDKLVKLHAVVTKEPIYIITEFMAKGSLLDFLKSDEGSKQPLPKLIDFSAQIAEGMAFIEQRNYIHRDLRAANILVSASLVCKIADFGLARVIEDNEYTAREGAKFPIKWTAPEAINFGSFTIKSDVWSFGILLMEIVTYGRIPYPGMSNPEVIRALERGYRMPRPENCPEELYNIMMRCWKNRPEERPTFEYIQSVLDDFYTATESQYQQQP

[17] = biological target: Insulin-like growth factor 1 receptor (Homo sapiens) (UniProt P08069); experiment: Inhibition of IGF1R at 10 uM; details: values are per cent of control
[18] = tested on: Mast/stem cell growth factor receptor Kit (Homo sapiens), P10721 [A829P]; experiment: Inhibition of KIT A829P mutant at 10 uM; details: values are per cent of control
Mast/stem cell growth factor receptor Kit (Homo sapiens), P10721 [A829P], sequence (P10721 whole entry A829P): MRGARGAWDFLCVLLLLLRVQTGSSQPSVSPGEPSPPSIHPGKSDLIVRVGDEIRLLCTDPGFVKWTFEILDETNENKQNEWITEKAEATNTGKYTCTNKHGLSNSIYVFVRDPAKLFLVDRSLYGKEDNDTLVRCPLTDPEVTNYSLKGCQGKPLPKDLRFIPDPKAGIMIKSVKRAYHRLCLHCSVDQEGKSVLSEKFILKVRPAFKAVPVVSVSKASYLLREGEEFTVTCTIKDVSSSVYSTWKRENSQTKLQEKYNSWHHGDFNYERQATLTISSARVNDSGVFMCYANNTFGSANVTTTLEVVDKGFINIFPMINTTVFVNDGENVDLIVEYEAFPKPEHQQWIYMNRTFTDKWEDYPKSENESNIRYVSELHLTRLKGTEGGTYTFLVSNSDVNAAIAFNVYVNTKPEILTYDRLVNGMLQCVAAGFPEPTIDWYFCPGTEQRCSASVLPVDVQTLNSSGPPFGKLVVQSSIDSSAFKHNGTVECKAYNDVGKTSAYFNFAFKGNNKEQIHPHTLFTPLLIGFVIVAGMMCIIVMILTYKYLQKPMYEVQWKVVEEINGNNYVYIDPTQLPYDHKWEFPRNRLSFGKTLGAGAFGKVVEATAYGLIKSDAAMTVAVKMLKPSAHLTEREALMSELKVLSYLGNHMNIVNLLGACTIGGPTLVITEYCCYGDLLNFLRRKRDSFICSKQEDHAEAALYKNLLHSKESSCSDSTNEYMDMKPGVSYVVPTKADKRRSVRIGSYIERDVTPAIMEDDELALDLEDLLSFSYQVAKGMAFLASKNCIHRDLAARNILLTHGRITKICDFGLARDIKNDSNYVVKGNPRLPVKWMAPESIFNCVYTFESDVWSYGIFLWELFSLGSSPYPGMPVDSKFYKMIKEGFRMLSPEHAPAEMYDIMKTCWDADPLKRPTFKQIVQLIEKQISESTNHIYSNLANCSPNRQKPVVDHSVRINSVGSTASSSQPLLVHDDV

[19] = biological target: MAP kinase-activated protein kinase 2 (Homo sapiens) (UniProt P49137); experiment: Inhibition of MAPKAPK2 at 10 uM; details: values are per cent of control
[20] = biological target: Misshapen-like kinase 1 (Homo sapiens) (UniProt Q8N4C8); experiment: Inhibition of MINK at 10 uM
[21] = biological target: Dual specificity mitogen-activated protein kinase kinase 7 (Homo sapiens) (UniProt O14733); experiment: Inhibition of MKK7 at 10 uM
[22] = biological target: Serine/threonine-protein kinase Nek2 (Homo sapiens) (UniProt P51955); experiment: Inhibition of NEK2 at 10 uM
[23] = biological target: Serine/threonine-protein kinase PAK 1 (Homo sapiens) (UniProt Q13153); experiment: Inhibition of PAK1 at 10 uM
Serine/threonine-protein kinase PAK 1 (Homo sapiens), sequence (Q13153 whole entry): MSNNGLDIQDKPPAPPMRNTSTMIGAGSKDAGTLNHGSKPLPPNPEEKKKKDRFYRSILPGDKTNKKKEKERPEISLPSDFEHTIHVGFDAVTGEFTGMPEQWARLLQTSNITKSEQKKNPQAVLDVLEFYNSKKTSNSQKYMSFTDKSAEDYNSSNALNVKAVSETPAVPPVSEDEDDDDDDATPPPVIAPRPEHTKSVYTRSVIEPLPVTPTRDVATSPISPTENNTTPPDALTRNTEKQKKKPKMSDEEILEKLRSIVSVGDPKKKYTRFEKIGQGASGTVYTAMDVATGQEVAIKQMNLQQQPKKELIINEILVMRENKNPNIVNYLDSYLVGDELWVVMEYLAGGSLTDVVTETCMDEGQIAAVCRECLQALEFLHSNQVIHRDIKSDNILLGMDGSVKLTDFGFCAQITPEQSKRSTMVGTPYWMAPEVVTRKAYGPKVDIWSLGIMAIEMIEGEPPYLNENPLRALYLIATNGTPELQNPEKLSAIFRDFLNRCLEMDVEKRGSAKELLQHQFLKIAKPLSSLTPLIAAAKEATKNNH

[24] = biological target: Tyrosine-protein kinase Srms (Homo sapiens) (UniProt Q9H3Y6); experiment: Inhibition of SRMS at 10 uM
[25] = biological target: Serine/threonine-protein kinase 36 (Homo sapiens) (UniProt Q9NRP7); experiment: Inhibition of STK36 at 10 uM
[26] = biological target: Serine/threonine-protein kinase ULK2 (Homo sapiens) (UniProt Q8IYT8); experiment: Inhibition of ULK2 at 10 uM; details: values are per cent of control
[27] = tested on: Phosphatidylinositol 4,5-bisphosphate 3-kinase catalytic subunit alpha isoform (Homo sapiens), P42336 [C420R]; experiment: Inhibition of PIK3CA C420R mutant at 10 uM
[28] = tested on: Phosphatidylinositol 4,5-bisphosphate 3-kinase catalytic subunit alpha isoform (Homo sapiens), P42336 [H1047L]; experiment: Inhibition of PIK3CA H1047L mutant at 10 uM
[29] = biological target: Serine/threonine-protein kinase pim-2 (Homo sapiens) (UniProt Q9P1W9); experiment: Inhibition of PIM2 at 10 uM
[30] = biological target: Serine/threonine-protein kinase N2 (Homo sapiens) (UniProt Q16513); experiment: Inhibition of PKN2 at 10 uM
[31] = biological target: Serine/threonine-protein kinase D2 (Homo sapiens) (UniProt Q9BZL6); experiment: Inhibition of PRKD2 at 10 uM
[32] = biological target: cGMP-dependent protein kinase 2 (Homo sapiens) (UniProt Q13237); experiment: Inhibition of PRKG2 at 10 uM
[33] = biological target: Ribosomal protein S6 kinase alpha-4 (Homo sapiens) (UniProt O75676); experiment: Inhibition of RPS6KA4 N-terminal domain1 at 10 uM
Ribosomal protein S6 kinase alpha-4 (Homo sapiens), sequence (O75676 whole entry, looked up, the tested form may be a part): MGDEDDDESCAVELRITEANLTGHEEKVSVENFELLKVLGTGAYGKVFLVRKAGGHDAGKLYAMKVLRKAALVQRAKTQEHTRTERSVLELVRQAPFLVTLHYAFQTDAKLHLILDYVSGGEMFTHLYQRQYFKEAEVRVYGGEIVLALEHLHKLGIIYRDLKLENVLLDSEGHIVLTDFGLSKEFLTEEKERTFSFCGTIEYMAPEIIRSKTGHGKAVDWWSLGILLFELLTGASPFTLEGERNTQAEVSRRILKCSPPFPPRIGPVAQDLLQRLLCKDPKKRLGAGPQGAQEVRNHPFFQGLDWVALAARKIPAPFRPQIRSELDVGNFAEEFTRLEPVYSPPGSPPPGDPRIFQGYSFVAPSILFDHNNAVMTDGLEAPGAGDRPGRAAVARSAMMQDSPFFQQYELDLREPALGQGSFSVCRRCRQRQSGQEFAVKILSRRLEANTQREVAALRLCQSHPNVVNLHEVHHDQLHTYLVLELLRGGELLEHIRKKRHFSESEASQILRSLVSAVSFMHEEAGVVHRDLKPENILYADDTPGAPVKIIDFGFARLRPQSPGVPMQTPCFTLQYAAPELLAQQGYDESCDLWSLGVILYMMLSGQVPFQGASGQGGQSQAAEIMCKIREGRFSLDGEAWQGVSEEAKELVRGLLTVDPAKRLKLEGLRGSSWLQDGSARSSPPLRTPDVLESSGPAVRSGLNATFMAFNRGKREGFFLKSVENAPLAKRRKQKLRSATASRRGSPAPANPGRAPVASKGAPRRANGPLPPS

[34] = biological target: Serine/threonine-protein kinase 10 (Homo sapiens) (UniProt O94804); experiment: Inhibition of LOK at 10 uM; values are per cent of control
[35] = biological target: Cyclin-dependent kinase 9 (Homo sapiens) (UniProt P50750); experiment: Inhibition of CDK9 at 10 uM; values are per cent of control
[36] = biological target: Epithelial discoidin domain-containing receptor 1 (Homo sapiens) (UniProt Q08345); experiment: Inhibition of DDR1 at 10 uM; values are per cent of control
[37] = biological target: High affinity nerve growth factor receptor (Homo sapiens) (UniProt P04629); experiment: Inhibition of TRKA at 10 uM; values are per cent of control
[38] = biological target: Bone morphogenetic protein receptor type-2 (Homo sapiens) (UniProt Q13873); experiment: Inhibition of BMPR2 at 10 uM; values are per cent of control
[39] = biological target: Mitogen-activated protein kinase 11 (Homo sapiens) (UniProt Q15759); experiment: Inhibition of p38beta at 10 uM; values are per cent of control
[40] = tested on: Epidermal growth factor receptor (Homo sapiens), P00533 [L858R]; experiment: Inhibition of EGFR L858R mutant at 10 uM; values are per cent of control
[41] = biological target: Tyrosine-protein kinase JAK3 (Homo sapiens) (UniProt P52333); experiment: Inhibition of JAK3 JH1 catalytic domain at 10 uM; values are per cent of control
Tyrosine-protein kinase JAK3 (Homo sapiens), sequence (P52333 whole entry, the tested form may be a part): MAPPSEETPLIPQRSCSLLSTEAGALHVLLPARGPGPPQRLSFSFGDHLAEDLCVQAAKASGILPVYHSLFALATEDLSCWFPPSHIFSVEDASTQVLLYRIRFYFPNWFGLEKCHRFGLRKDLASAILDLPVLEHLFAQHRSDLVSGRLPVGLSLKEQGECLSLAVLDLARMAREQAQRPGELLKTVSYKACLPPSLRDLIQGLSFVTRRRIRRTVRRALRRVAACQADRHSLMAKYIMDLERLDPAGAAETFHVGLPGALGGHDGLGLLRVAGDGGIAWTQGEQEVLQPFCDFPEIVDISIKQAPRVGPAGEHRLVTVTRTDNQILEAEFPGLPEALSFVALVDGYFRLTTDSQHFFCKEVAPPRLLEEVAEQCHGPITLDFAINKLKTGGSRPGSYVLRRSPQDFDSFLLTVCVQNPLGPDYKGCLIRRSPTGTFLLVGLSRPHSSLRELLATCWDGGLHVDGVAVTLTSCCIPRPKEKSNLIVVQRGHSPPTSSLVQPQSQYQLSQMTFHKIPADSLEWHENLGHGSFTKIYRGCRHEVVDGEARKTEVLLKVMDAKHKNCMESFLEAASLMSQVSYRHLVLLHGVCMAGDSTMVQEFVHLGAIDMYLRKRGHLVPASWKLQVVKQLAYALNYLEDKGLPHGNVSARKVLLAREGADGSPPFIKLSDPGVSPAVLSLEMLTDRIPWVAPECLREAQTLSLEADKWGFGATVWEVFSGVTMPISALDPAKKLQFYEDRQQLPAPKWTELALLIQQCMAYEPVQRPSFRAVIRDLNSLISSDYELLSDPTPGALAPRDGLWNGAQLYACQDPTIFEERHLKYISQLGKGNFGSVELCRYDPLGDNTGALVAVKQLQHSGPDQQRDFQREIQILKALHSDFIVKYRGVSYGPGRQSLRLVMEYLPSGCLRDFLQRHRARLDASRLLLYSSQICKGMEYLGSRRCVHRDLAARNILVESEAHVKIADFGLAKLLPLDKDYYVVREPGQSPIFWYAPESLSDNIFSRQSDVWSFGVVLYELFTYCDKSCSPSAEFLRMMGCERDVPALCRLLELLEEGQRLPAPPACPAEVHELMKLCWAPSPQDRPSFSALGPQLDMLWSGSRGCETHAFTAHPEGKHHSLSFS

[42] = tested on: Epidermal growth factor receptor (Homo sapiens), P00533 [UNDEFINED MUTATION]; experiment: Inhibition of EGFR L747-S752del, P753S mutant at 10 uM; values are per cent of control

CCN1CCN(Cc2ccc(NC(=O)c3ccc(C)c(C#Cc4cccnc4)c3)cc2C(F)(F)F)CC1
pEC50 [1]: > 9.00 | residual binding, % of control [2]: 2.6% | residual binding, % of control [3]: 100% | residual binding, % of control [4]: 100% | residual binding, % of control [5]: 85% | residual binding, % of control [6]: 24% | residual binding, % of control [7]: 59% | residual binding, % of control [8]: 84% | residual binding, % of control [9]: 100% | residual binding, % of control [10]: 77% | residual binding, % of control [11]: 0% | residual binding, % of control [12]: 0.25% | residual binding, % of control [13]: 11% | residual binding, % of control [14]: 0.3% | residual binding, % of control [15]: 0.25% | residual binding, % of control [16]: 0.05% | residual binding, % of control [17]: 100% | residual binding, % of control [18]: 27% | residual binding, % of control [19]: 85% | inhibition [20]: 2.5% | inhibition [21]: 11% | inhibition [22]: 100% | inhibition [23]: 81% | inhibition [24]: 0% | inhibition [25]: 0.4% | residual binding, % of control [26]: 50% | inhibition [27]: 72% | inhibition [28]: 100% | inhibition [29]: 100% | inhibition [30]: 36% | inhibition [31]: 56% | inhibition [32]: 97% | inhibition [33]: 30% | level, % of control [34]: 0% | level, % of control [35]: 52% | level, % of control [36]: 0.05% | level, % of control [37]: 0.35% | level, % of control [38]: 70% | level, % of control [39]: 0% | level, % of control [40]: 4% | level, % of control [41]: 2.3% | level, % of control [42]: 0.9%

CCN1CCN(Cc2ccc(NC(=O)c3ccc(C)c(C#Cc4cnc5[nH]ccc5c4)c3)cc2C(F)(F)F)CC1
pEC50 [1]: > 9.00 | residual binding, % of control [2]: 0.9% | residual binding, % of control [3]: 100% | residual binding, % of control [4]: 100% | residual binding, % of control [5]: 82% | residual binding, % of control [6]: 4.6% | residual binding, % of control [7]: 30% | residual binding, % of control [8]: 100% | residual binding, % of control [9]: 100% | residual binding, % of control [10]: 35% | residual binding, % of control [11]: 0.15% | residual binding, % of control [12]: 2.7% | residual binding, % of control [13]: 2.6% | residual binding, % of control [14]: 0.15% | residual binding, % of control [15]: 0.15% | residual binding, % of control [16]: 0.15% | residual binding, % of control [17]: 95% | residual binding, % of control [18]: 24% | residual binding, % of control [19]: 100% | inhibition [20]: 5.4% | inhibition [21]: 5.4% | inhibition [22]: 100% | inhibition [23]: 62% | inhibition [24]: 0.2% | inhibition [25]: 0.15% | residual binding, % of control [26]: 61% | inhibition [27]: 95% | inhibition [28]: 100% | inhibition [29]: 100% | inhibition [30]: 2.2% | inhibition [31]: 13% | inhibition [32]: 77% | inhibition [33]: 3.6% | level, % of control [34]: 0% | level, % of control [35]: 31% | level, % of control [36]: 0% | level, % of control [37]: 0.3% | level, % of control [38]: 61% | level, % of control [39]: 0% | level, % of control [40]: 0.25% | level, % of control [41]: 3.5% | level, % of control [42]: 0.8%
